Numbered stars: 1 amine (or outer) side, 2 acyl side, 3 side chain; on linkers, the order of the positions; unused ones are H or OH. Bridge positions count the residues as written; N and C are the ends. Square brackets hold non-standard residues; d marks the D form. Peptide text beside a SMILES is read from it. I, II: the chains in the order shown. * marks the point of attachment. Actinocin(9to1) = Cc1c2oc3c(C)ccc(C(=O)[*:1])c3nc-2c(C(=O)[*:2])c(N)c1=O; NMeV = CN[C@H](C(=O)O)C(C)C; Cbz = O=C(OCc1ccccc1)*; Sar = CNCC(=O)O; CH2F = FC*
Assays:
Type in all cases: cell-based, human
HeLa cells = assay: Apoptosis by DNA content analysis and flow cytometry in HeLa cells
[1] = test system: survivin expression in MCF-7 cells; assay: Survivin expression by Western blotting in MCF-7 cells; conditions: for effect on the increase in survivin expression mediated by adriamycin, taxol or 50 J/m^2 UVB: preincubation with cycloheximide 2 mg/ml or actinomycin D 1 μg/ml
Experimental: (§1) Cell Cultures, Proteins and Antibodies: Breast carcinoma MCF-7 and cervical carcinoma HeLa cells (American Type Culture Collection, Manassas, Va.) were maintained in culture according to the manufacturer's specifications. For treatment with genotoxic agents, HeLa or MCF-7 cells were incubated with vehicle (DMSO) or taxol (2 μM, Sigma Chemical Co., St. Louis, Mo.), adriamycin (100 nM, Sigma), cis-platin (3 μM, Sigma) or subjected to ultraviolet B (UVB) irradiation at 50 or 300 J/m^2. In some experiments, HeLa or MCF-7 treated with taxol, adriamycin or UVB as described above were incubated with inhibitors of transcription (actinomycin D, 1 μg/ml) or translation (cycloheximide, 2 mg/ml) before determination of protein expression by Western blotting. […] A replication-deficient adenovirus encoding wild type survivin (pAd-Survivin) or control encoding Green Fluorescence Protein (pAd-GFP) was generated using the pAd-Easy system as described previously (M. Mesri et al. (2001) J. Clin. Invest. 108: 981-90), and propagated in HEK293 cells with purification by CsCl banding. […] Antibodies to p34^cdc2 or bcl-2 were obtained from Pharmingen (San Diego, Calif.) and R&D, respectively. An antibody to β-actin was from Sigma and antibodies to MPM-2 mitotic phosphoproteins was from Upstate Biotechnology (Lake Placid, N.Y.).
(§2) In some experiments, total RNA was extracted from MCF-7 cells at various time intervals after adriamycin treatment, and hybridized with 32 P-labeled survivin cDNA as described previously. Radioactive bands were detected by autoradiography. […] In other experiments, samples were transferred to nylon membranes and analyzed by Western blotting with antibodies to p34^cdc2 (1 μg/ml), survivin (2 μg/ml), or survivinT34* (5 μg/ml).

[2] = test system: p34^cdc2 kinase activity (MPM-2 epitope) in HeLa cells; assay: MPM-2 mitotic phosphoepitope expression (p34^cdc2 kinase activity) in HeLa cells; conditions: HeLa
MCF-7 cells = assay: Apoptosis by DNA content analysis and flow cytometry in MCF-7 cells; conditions: taxol 2 μM, adriamycin 100 nM, cis-platin 3 μM (Example 7)
Experimental: Cervical carcinoma HeLa (functionally inactivated p53) cells or breast carcinoma MCF-7 (wild type p53) cells were plated at 50-60% confluency in C-6 wells. […]
After 4, 8, 16, and 32 hours of incubation, without removing taxol from the wells, purvalanol A was added at three increasing concentrations, 1, 10 and 20 uM (FIG. 1). A control was performed with addition of purvalanol A at the 0-h time point.
The cell populations were harvested at increasing time intervals from the 0-h time point or corresponding to the addition of purvalanol A. Apoptosis was analyzed by DNA content analysis and flow cytometry (DAPI staining).

[3] = test system: survivin expression in HeLa cells; assay: Survivin expression by Western blotting in HeLa cells
Experimental: as §1, §2
In other experiments, HeLa cells were treated with taxol (0.2 μM) for 16 h followed by the DNA damaging agent adriamycin (100 nM, Sigma) or the nucleoside analog 5-Fluorouracil (500 μM, Sigma) for 8-32 h at 37° C. […] In some experiments, HeLa cells were transfected by lipofectamine with a minimal survivin promoter construct upstream of a luciferase reporter gene (pLuc-cyc1.2), as described (F. Li et al. (1998) Nature 396: 580-584). Cells were treated with taxol (2 μM) or UVB (50 J/m2), and analyzed for changes in luciferase activity at increasing time intervals (12-36 h) in a luminometer. Luciferase values were normalized to β-galactosidase expression. […] The immune complexes were separated by SDS gel electrophoresis and analyzed with antibodies to survivin or a-survivinT34* by Western blotting.

[4] = test system: p34^cdc2 kinase activity (MPM-2 epitope) in MCF-7 cells; assay: MPM-2 mitotic phosphoepitope expression (p34^cdc2 kinase activity) in MCF-7 cells; conditions: vincristine (FIG. 7)
Experimental: MPM-2 Mitotic Phosphoepitope Expression: For detection of mitotic phosphoproteins (D. D. Vandre et al. (1989) J. Cell Sci. 94: 245-58), MCF-7 cells (1-2×10^5 cells/60 mm dish) were treated with taxol (2 μM), adriamycin (100 nM), 50 or 300 J/m^2 UVB irradiation and cultured for 0, 8, 16, 24 or 36 h at 37° C. Cells were fixed in 70% ethanol, labeled with MPM-2 antibody (6 μg/ml) followed by addition of goat anti-mouse FITC (Boehringer Mannheim) for 1 h at 22° C. in the presence of 5 μg/ml propidium iodide (PI) containing 50 μg/ml RNase A. Samples were analyzed on a FACScan (Becton Dickinson, Mountain View, Calif.), using CellQuest software.
MPM-2 Mitotic Phosphoepitope Expression: For detection of mitotic phosphoproteins (D. D. Vandre et al. (1989) J. Cell Sci. 94: 245-258), MCF-7 cells (1-2×10^5 cells/60 mm dish) were treated with taxol (0.2 μM), or vincristine (100 nM) for increasing time intervals (8-36 h) at 37° C. Cells were fixed in 70% ethanol, labeled with MPM-2 antibody (6 μg/ml; Upstate Biotechnology, Lake Placid, N.Y.) followed by addition of goat anti-mouse FITC (Boehringer Mannheim) for 1 h at 22° C. in the presence of 5 μg/ml propidium iodide containing 50 μg/ml RNAse A. Samples were analyzed on a FACScan (Becton Dickinson, Mountain View, Calif.), using CellQuest software. Data are expressed as %MPM-2 positive cells in the entire population.

[5] = genistein 25 μM or TNF a 5 ng/ml, 48 h

Molecule: O=c1[nH]cc(F)c(=O)[nH]1 [5-FU, 5-Fluorouracil]
- enhancement of apoptosis vs single agent treatment (HeLa cells; taxol 0.2 μM 16 h then adriamycin 100 nM or 5-Fluorouracil 500 μM): did not result in enhanced apoptosis

Molecule: COC(=O)C[C@H](NC(=O)[C@H](C)NC(=O)[C@@H](NC(=O)OCc1ccccc1)C(C)C)C(=O)CF [Z-VAD-fink, Z-VAD-fmk] (Cbz-Val-Ala-Asp(OMe)-CH2F)
- effect on flavopiridol-induced apoptosis (HeLa cells; preincubation with caspase inhibitor): suppressed flavopiridol-induced apoptosis

Molecule: Cc1c2oc3c(C)ccc(C(=O)N[C@@H]4C(=O)N[C@H](C(C)C)C(=O)N5CCC[C@H]5C(=O)N(C)CC(=O)N(C)[C@@H](C(C)C)C(=O)O[C@@H]4C)c3nc-2c(C(=O)N[C@@H]2C(=O)N[C@H](C(C)C)C(=O)N3CCC[C@H]3C(=O)N(C)CC(=O)N(C)[C@@H](C(C)C)C(=O)O[C@@H]2C)c(N)c1=O [actinomycin D] (I: T[dV]P[Sar][NMeV] / II: T[dV]P[Sar][NMeV]; ester I:1-I:C, II:1-II:C; linker I:N-II:N via Actinocin(9to1))
- effect on the increase in survivin expression mediated by adriamycin, taxol or 50 J/m^2 UVB [1]: significantly inhibited the increase in survivin expression

Molecule: O=C1Cc2c([nH]c3ccc([N+](=O)[O-])cc23)-c2ccccc2N1 [alsterpaullone]
- MPM-2 mitotic phosphoepitope expression ([2]; taxol 0.2 μM 16 h then Cdk inhibitor for 16 h (Purvalanol A 10 μM, alsterpaullone 20 μM, flavopiridol 250 nM, olomoucine 400 μM)): partially inhibited MPM-2 expression
- MPM-2 mitotic phosphoepitope expression ([2]; taxol 0.2 μM 16 h then Cdk inhibitor for 32 h): suppressed mitotic phosphoprotein expression

Molecule: N.N.[Cl][Pt][Cl] [cis-platin]
- effect on survivin levels ([1]; cis-platin 3 μM): did not affect survivin levels
- increased expression of survivin, compared with taxol ([1]; cisplatin 3 μM): less effective
- apoptosis (MCF-7 cells): negligible apoptosis
- cell cycle arrest (MCF-7 cells): G2/M arrest

Molecule: C[C@@H]1C[C@@H]([C@H](O)CC2CC(=O)NC(=O)C2)C(=O)[C@@H](C)C1 [cycloheximide]
- effect on the increase in survivin expression mediated by adriamycin, taxol or 50 J/m^2 UVB [1]: significantly inhibited the increase in survivin expression

Molecule: O=c1c(-c2ccc(O)cc2)coc2cc(O)cc(O)c12 [genistein]
- survivin expression [3, 5]: did not affect survivin expression

Molecule: CC[C@]1(O)C[C@H]2CN(CCc3c([nH]c4ccccc34)[C@@](C(=O)OC)(c3cc4c(cc3OC)N(C=O)[C@H]3[C@@](O)(C(=O)OC)[C@H](OC(C)=O)[C@]5(CC)C=CCN6CC[C@]43[C@@H]65)C2)C1 [vincristine]
- cell cycle arrest (HeLa cells; vincristine 100 nM): sustained mitotic (prometaphase) arrest
- cdc2 kinase activity [4]: induces cdc2 kinase activity
- survivin expression ([3]; vincristine 100 nM): increased survivin expression
- p34^cdc2 kinase activity ([2]; vincristine 100 nM): elevated p34^cdc2 kinase activity

Molecule: TNF a
- survivin expression [3, 5]: did not affect survivin expression

From patent US6949558B2, “Enhancement of taxane-based chemotherapy by a CDK1 antagonist” (Yale University, priority 2001, dated 2005)
